According to patent publication US20130231305A1, “Method of Modulating Protein 14-3-3 Functionality By Facilitating or Inhibiting Phosphorylation” (Medvet Science Pty. Ltd., priority 2010, published 2013):
Numbering of substitutions follows the chain as printed. Entries after “also recorded” stand apart in the source; their conditions may differ.

Key:
[1] = biological target: T1, 14-3-3ζ (Homo sapiens, UniProt P63104); assay: 14-3-3 phosphorylation by PKA catalytic subunit (autoradiography); type: biochemical; conditions: 50 μM lipid delivered in 0.1% ethanol
T1 construct: made in house
T1 sequence (P63104 1-245): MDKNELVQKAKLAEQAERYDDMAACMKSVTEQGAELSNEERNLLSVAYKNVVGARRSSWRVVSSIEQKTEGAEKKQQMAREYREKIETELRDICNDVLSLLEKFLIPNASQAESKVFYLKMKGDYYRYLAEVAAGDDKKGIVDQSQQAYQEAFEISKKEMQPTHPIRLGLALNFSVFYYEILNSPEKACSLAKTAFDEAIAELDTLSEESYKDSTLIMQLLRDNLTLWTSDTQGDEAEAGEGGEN
Procedure: 14-3-3ζ (wild-type or S58A mutant) was incubated with the catalytic subunit of PKA in the presence (+) or absence (−) of 50 μM sphingosine (A) or DMS (B) delivered in 0.1% ethanol. Phosphorylated 14-3-3ζ was detected by autoradiography.
The assay was carried out by incubating 14-3-g (0.5 μg) with catalytic subunit of PKA (0.2 Units) with the indicated concentration of DMS delivered in 0.1% ethanol. Reactions were separated on SDS-PAGE and phosphorylated protein detected by autoradiography. […] (B) 14-3-3ζ was incubated with the catalytic subunit of PKA and 50 μM D-erythro-sphingosine (Sph), D-erythro-trimethyl-sphingosine (TMS), D-erythro-dihydro-sphingosine (DHS), phyto-sphingosine (PSph), D-erythro-sphingosine-1-phosphate (SIP), C2-ceramide (C2-Cer), sphingomyelin (SM), spermine (Sper) or linoleic acid (LA), all delivered in 0.1% ethanol. Phosphorylated 14-3-3ζ was detected by autoradiography.
(§1) Substrate 14-3-3 (either 0.5 μg of purified recombinant 14-3-3, a […] of fractions from gel filtration or immunoprecipitates from 14-3-3ζ-Myc transfected COS cells) were added to reaction mixture comprising 0.2 Units of the PKA catalytic subunit, in the presences or absence of sphingolipid (delivered in 0.1% v/v ethanol) in PICA reaction buffer (20 mM MOPS, pH 7.4, 20 mM β-glycerol phosphate, 4 mM EGTA, 1 mM Na3VO4, 60 mM MgCl2, 1 mM DTT, 500 μM ATP, 2.4 μCi [^32P]γ-ATP). Reactions were incubated at 37° C. for 15 minutes. After incubation, reactions were separated on 12.5% SDS-PAGE, coomassie stained and 14-3-3 phosphorylation analysed by autoradiography.

[2] = biological target: T2, 14-3-3ζ S58A mutant (Homo sapiens, UniProt P63104, S58A); assay: Phosphorylation of S58A mutant 14-3-3ζ by PKA catalytic subunit; type: biochemical; conditions: 50 μM sphingosine; alanine substitution of Ser58
T2 construct: made in house
T2 sequence (P63104 1-245 S58A): T1 sequence (P63104 1-245) with S58A
Procedure: FIG. 1 is an image depicting that sphingosine is required for 14-3-3ζ phosphorylation on Ser58 by the catalytic subunit of PKA. 14-3-3ζ (wild-type or S58A mutant) was incubated with the catalytic subunit of PKA in the presence (+) or absence (−) of 50 μM sphingosine (A) or DMS (B) delivered in 0.1% ethanol. Phosphorylated 14-3-3ζ was detected by autoradiography. Gels were coomassie stained to show equal loading of 14-3-3 substrate.
as §1

[3] = test system: 14-3-3 isoforms; assay: Phosphorylation of recombinant 14-3-3 isoforms by PKA catalytic subunit; type: biochemical; conditions: 50 μM in 0.1% ethanol
Procedure: FIG. 3 is an image depicting that sphingosine is required for the phosphorylation of multiple 14-3-3 isoforms in the third helix. (A) Primary sequence alignment of 14-3-3 isoforms in the third helix showing conservation of a Ser phosphorylation site (shown in bold). Asterisks indicate identical amino acids. (B) Recombinant 14-3-3 isoforms were incubated with PKA catalytic subunit in the presence of 50 μM sphingosine, dimethyl-sphingosine (DMS) or FTY 720 (FTY) delivered in 0.1% ethanol (EtOH). Phosphorylated 14-3-3s were detected by autoradiography. Gels were coomassie stained to show equal loading of 14-3-3 substrate.
as §1

[4] = biological target: T1, 14-3-3ζ; assay: Gel filtration of 14-3-3ζ with DMS and [3H]-sphingosine; type: binding; conditions: co-elution in fractions 3-14; 25 μM DMS with trace [3H]-sphingosine
Procedure: FIG. 4 is a graphical representation depicting that sphingosine binds to 14-3-3 in vitro. 10 μg of recombinant 14-3-3 was incubated for 15 minutes at room temperature in 50 μl of buffer either in the absence (FIG. A, thick line) or presence of [^3H]-sphingosine (0.5 μCi) with 25 μM DMS (thin line). After incubation, the mixtures were separated by gel filtration as described under “examples”. (A) Absorbance at 280 nm was monitored continuously to identify the elution position of 14-3-3 protein. An aliquot of each eluted fraction was analysed for (B) sphingosine-binding to 14-3-3 by measuring [^3H]-sphingosine radioactivity as determined by scintillation counting; and (C) 14-3-3 phosphorylatability by incubation with 0.2 Units of PKA catalytic subunit and [^32P]γ-ATP. Phosphorylated 14-3-3 was detected by autoradiography. The chromatography and assays were repeated twice and similar results obtained.
Recombinant 14-3-3ζ (10 μg) was pre-incubated with 25 μM […] delivered in 0.1% v/v ethanol and [^3H]-sphingosine, (0.5 μCi) and then chromatographed on a SMART system with a Superdex 200PC 3.2/30 column (Amersham Biosciences, Australia). The system was operated at 40 μl/min using 20 mM Tris-HCl pH 7.5, 150 mM NaCl, 0.1 mM DTT, 10 mM β-mercaptoethanol as running buffer. Fractions (40 μl) were collected for 60 minutes after sample injection. […]

[5] = biological target: T1, 14-3-3ζ; assay: 14-3-3 phosphorylation by PKCδCat-HA immunoprecipitates; type: biochemical; conditions: recombinant 14-3-3ζ, FIG. 5B
Procedure: FIG. 5 is an image depicting that DMS is required for phosphorylation of 14-3-3ζ by PKCδCat but not for activation of the kinase. COS cells were transfected with either an empty expression construct (Mock) or one encoding a HA-tagged truncated form of PKCδ corresponding to the caspase-3 cleaved protein (PKCδCat-HA). 20 hours after transfection the cells were lysed and PKCδCat-HA was immunoprecipitated using an anti-HA antibody. (A) PKC assays were carried out on the immunoprecipitates from mock (open bars) and PKCδCat-HA (shaded bars) expressing cells using Ser25 peptide as substrate with [^32P]γ-ATP in the presence or absence of 100 μM DMS (delivered in 0.1% ethanol) or 10 μM of GF109203X (GFX), the PKC inhibitor. The values represent means±S.E. of triplicate determinations. (B) PKCδCat-HA immunoprecipitates were incubated with recombinant 14-3-3ζ and [^32P]γ-ATP in the presence or absence of DMS or GF109203X (GFX). Phosphorylated 14-3-3 was detected by autoradiography after separation of SDS-PAGE (upper panel). The gel was also coomassie stained to show equal loading of 14-3-3 protein (lower panel).
Equal amounts of PKCδCat-HA immunoprecipitate were used to assay for PKC kinase activity, or to phosphorylate recombinant 14-3-3. […] Following incubation, reactions were separated on 12.5% SDS-PAGE, coomassie stained and 14-3-3 phosphorylation analysed by autoradiography.

[6] = published, Contreras et al. 2006; cited from earlier work

sphingosine-dependent phosphorylation of S58A 14-3-3ζ [2]: abolished
binding of [3H]-sphingosine to 14-3-3 [4]: directly bound to 14-3-3
SMILES: CCCCCCCCCCCCC/C=C/[C@@H](O)[C@@H](N)CO [sphingosine, D-erythro-sphingosine]
phosphorylation of 14-3-3ζ on Ser58 by PKA catalytic subunit [1]: not phosphorylated by PKA catalytic subunit unless sphingosine was present; also recorded: allowed phosphorylation
phosphorylation of 14-3-3 isoforms by PKA catalytic subunit [3]: all isoforms tested with the exception of 14-3-36 were phosphorylatable
phosphorylation of 14-3-3 by PKCδCat [5]: no phosphorylation is observed with PKCδCat unless sphingosine is present
critical micelle concentration [6]: 18 µM
